# From PMC6440584 (Eurosurveillance, 2019)
# Tests used:
# [1] = biological target: neuraminidase (NA) of influenza A(H3N2) virus A/YOKOHAMA/88/2019 (Influenza A virus, UniProt A0A193ACB1); format: biochemical
# [2] = biological target: neuraminidase (NA) of influenza A(H3N2) virus A/YOKOHAMA/87/2019 (Influenza A virus, UniProt A0A193ACB1); format: biochemical
structure (smiles),measurement,setting,value
"CCC(CC)[C@H](NC(C)=O)[C@@H]1[C@H](O)[C@@H](C(=O)O)C[C@H]1N=C(N)N [Peramivir, peramivir]",WHO criteria (fold change of IC50 compared with reference IC50),[1],0.13 (NI) (key: NI: normal inhibition)
same,WHO criteria (fold change of IC50 compared with reference IC50),[2],0.16 (NI) (key: NI: normal inhibition)
